Data published in PMC9886283, “Specific gene module pair-based target identification and drug discovery” (Frontiers in Pharmacology, 2023).
Where a name gives a salt, the structure may show the parent alone. Read-outs that look alike come from different tables or passages of the source.

Assays:
PI3Kβ = PI3Kβ (Homo sapiens, UniProt P42338); assay: PI3Kβ kinase assay (ADP-Glo-based biochemical assay); conditions: n = 3 per dose
Method: (§1) This study aims to determine the effect of test compounds on PI3Kα/β/δ enzyme activity using ADP-Glo-based biochemical assay (Vendor: Promega, Cat#: V9102), following the manufacturer’s instruction. […] Then, the IC50s were calculated by fitting % inhibition values and the log of compound concentrations to the hill slope with the variable slope (called the variable slope model or four-parameter dose-response curve), and the log (inhibitor) vs. response curve was built by GraphPad Prism version 7.0 (GraphPad Software). Data are presented as mean ± SEM, with n = 3 for each drug dose.

PI3Kα = PI3Kα (Homo sapiens, UniProt P42336); assay: PI3Kα kinase assay (ADP-Glo-based biochemical assay)
Method: as §1

PI3Kδ = PI3Kδ (Homo sapiens, UniProt O00329); assay: PI3Kδ kinase assay (ADP-Glo-based biochemical assay)
Method: as §1

[1] = test system: N-methyl-D-aspartic acid (NMDA) receptor; conditions: uncompetitive, low-affinity, non-selective antagonist; ref Lipton, 2007; cited from earlier work
[2] = ADP-Glo, n = 3 per dose, read-out: IC50 PI3Kα
[3] = ADP-Glo, n = 3 per dose, read-out: IC50 PI3Kδ

PI3Kδ, sequence (O00329 whole entry): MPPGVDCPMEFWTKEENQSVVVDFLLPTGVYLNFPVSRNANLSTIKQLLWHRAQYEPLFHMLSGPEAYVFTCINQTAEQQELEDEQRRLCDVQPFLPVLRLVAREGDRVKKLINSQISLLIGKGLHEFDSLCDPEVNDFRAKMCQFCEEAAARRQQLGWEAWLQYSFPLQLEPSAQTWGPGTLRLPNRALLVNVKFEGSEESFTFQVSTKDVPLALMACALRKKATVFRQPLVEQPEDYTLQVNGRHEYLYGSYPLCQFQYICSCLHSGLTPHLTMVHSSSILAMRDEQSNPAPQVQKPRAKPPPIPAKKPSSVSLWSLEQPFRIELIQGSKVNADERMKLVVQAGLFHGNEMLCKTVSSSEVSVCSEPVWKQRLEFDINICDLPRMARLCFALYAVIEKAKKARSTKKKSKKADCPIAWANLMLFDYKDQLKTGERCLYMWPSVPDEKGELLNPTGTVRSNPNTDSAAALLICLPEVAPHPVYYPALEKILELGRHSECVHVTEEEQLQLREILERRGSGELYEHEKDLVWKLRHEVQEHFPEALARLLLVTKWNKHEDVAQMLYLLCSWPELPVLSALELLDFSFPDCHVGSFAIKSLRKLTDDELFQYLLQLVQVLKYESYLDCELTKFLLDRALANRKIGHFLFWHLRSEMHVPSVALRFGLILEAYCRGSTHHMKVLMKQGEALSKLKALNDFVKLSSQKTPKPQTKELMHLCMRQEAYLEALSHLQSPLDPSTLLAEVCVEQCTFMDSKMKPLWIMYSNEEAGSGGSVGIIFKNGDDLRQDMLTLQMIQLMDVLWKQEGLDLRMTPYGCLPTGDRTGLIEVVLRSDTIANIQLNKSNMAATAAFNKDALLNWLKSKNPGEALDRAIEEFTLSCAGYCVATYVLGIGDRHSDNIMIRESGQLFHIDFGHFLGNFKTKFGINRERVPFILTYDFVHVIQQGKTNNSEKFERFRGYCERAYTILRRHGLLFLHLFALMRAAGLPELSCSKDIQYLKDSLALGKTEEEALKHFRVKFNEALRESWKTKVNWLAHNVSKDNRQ
PI3Kδ, sequence (P27986 whole entry partner): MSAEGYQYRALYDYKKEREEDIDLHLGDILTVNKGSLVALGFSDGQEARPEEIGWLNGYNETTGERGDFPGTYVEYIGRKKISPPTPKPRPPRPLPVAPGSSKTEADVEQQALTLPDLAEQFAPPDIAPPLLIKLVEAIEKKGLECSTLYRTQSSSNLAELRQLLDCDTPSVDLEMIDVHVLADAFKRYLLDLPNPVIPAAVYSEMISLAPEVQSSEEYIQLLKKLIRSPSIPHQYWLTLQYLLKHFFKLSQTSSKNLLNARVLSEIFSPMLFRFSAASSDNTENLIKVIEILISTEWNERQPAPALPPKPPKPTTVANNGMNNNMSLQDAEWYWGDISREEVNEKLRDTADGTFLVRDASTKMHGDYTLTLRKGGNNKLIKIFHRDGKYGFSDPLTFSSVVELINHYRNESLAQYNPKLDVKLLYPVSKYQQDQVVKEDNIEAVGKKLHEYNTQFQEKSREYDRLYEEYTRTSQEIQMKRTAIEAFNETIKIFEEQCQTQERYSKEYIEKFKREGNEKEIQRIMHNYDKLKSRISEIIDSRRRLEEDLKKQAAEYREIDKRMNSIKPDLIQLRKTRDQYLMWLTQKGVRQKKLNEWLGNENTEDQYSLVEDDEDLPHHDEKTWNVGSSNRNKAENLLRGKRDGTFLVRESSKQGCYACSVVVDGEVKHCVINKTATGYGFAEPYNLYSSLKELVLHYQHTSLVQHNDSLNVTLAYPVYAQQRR
PI3Kβ, sequence (P42338 whole entry): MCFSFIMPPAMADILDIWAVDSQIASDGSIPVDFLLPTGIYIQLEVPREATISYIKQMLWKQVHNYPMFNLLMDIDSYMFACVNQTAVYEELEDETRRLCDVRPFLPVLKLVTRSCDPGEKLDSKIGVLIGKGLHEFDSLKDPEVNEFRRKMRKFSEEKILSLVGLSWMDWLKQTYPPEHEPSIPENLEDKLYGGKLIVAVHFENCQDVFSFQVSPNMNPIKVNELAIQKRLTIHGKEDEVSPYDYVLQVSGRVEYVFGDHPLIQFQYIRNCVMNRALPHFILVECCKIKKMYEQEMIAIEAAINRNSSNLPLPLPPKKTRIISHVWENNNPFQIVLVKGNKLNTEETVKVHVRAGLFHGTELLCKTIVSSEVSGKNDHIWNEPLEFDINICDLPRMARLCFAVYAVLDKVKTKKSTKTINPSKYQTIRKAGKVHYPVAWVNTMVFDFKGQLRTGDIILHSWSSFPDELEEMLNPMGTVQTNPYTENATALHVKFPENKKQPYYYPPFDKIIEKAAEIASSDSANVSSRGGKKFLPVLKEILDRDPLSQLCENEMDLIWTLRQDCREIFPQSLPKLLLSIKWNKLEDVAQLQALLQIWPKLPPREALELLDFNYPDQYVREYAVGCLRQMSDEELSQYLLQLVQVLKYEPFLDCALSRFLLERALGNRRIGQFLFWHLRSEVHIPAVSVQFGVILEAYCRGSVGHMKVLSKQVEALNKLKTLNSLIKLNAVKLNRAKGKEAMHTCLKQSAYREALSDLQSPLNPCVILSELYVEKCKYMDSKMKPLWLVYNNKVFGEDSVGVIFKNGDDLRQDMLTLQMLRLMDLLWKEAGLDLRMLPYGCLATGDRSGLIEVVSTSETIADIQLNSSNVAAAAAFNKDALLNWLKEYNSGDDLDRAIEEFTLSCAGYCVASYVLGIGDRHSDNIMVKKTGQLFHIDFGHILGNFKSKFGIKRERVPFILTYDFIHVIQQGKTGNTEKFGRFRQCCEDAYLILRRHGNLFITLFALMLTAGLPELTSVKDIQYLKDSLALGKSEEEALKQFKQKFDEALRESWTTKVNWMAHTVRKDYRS
PI3Kβ, sequence (P27986 whole entry partner): as the sequence (P27986 whole entry partner) above
PI3Kα, sequence (P42336 whole entry): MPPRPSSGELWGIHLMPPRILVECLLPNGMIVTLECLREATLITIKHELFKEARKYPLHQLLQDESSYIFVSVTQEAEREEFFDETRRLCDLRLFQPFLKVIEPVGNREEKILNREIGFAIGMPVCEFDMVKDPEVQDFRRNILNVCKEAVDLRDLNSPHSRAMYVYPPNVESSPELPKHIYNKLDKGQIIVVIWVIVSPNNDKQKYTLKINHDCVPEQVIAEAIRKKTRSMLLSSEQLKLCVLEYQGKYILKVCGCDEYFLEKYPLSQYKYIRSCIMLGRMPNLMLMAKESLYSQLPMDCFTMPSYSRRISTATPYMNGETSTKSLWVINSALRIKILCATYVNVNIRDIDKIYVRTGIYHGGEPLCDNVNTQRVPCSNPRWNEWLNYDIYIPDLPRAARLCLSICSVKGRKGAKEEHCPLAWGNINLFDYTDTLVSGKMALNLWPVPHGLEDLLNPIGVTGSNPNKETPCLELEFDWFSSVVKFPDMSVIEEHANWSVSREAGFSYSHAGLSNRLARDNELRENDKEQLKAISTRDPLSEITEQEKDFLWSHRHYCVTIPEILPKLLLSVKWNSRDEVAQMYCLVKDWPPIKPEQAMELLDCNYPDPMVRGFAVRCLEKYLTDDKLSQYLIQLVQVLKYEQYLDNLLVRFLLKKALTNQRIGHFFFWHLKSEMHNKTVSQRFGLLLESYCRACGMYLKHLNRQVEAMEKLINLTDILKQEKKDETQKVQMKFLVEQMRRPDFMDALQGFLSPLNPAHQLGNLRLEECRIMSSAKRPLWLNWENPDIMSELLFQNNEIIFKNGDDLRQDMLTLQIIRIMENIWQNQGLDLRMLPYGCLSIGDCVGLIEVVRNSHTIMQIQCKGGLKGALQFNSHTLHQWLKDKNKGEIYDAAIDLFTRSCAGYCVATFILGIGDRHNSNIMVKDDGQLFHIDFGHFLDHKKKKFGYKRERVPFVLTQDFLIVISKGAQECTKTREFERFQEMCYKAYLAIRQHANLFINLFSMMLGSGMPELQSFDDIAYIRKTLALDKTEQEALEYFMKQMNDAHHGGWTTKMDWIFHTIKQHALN
PI3Kα, sequence (P27986 whole entry partner): as the sequence (P27986 whole entry partner) above

Row | Compound | IC50 (PI3Kβ) | IC50 (PI3Kα; [2]) | IC50 (PI3Kδ; [3]) | IC50 (PI3Kα) | IC50 (PI3Kδ) | affinity for NMDA receptor [1]
1 | CO[C@H]1/C=C\C=C(/C)C(=O)NC2=CC(=O)C(NCCN(C)C)=C(C[C@@H](C)C[C@H](OC)[C@H](O)[C@@H](C)/C=C(\C)[C@@H]1OC(N)=O)C2=O [alvespimycin] | 69 µM | 93 µM | 28 µM | – | – | –
2 | CC(C)NCCCn1c(Sc2cc3c(cc2I)OCO3)nc2c(N)ncnc21 [PU-H71] | – | – | 20 µM | – | – | –
3 | c1nc2nc(Nc3ccc(N4CCOCC4)cc3)nc(NC3CCCCC3)c2[nH]1 [reversine] | – | – | – | 12 µM | 3.5 µM | –
4 | CC12CC3CC(C)(C1)CC(N)(C3)C2 [memantine] | – | – | – | – | – | micromolar range
5 | CC/C(=C(\c1ccccc1)c1ccc(OCCN(C)C)cc1)c1ccccc1 [Tamoxifen, tamoxifen] | 14 µM | 19 µM | 10 µM | – | – | –

Second part, led by results:

Row | IC50 (PI3Kβ) | IC50 (PI3Kα; [2]) | IC50 (PI3Kδ; [3]) | Compound | IC50 (PI3Kα) | IC50 (PI3Kδ) | affinity for NMDA receptor [1]
6 | 8.7 µM | 18 µM | 6 µM | COc1ccc(CCN2CCC(Nc3nc4ccccc4n3Cc3ccc(F)cc3)CC2)cc1 [astemizole] | – | – | –
7 | 8.4 µM | 16 µM | 4.3 µM | O=C(c1ccc(OCCN2CCCCC2)cc1)c1c(-c2ccc(O)cc2)sc2cc(O)ccc12 [Raloxifene HCl, raloxifene HCl] | – | – | –
